# Reference: US20210403419A1, “SERINE DERIVATIVE COMPOUND FOR THE PREVENTION OR TREATMENT OF CENTRAL NERVOUS SYSTEM DISEASES” (Astrogen Co., Ltd., priority 2019, published 2021)
# How the values were obtained:
# [1] = test system: mouse hippocampal neuronal HT-22 cells treated with DMNQ; assay: Neuronal cell protection against DMNQ-induced oxidative stress (DiOC6 staining); format: cell-based; conditions: DMNQ 10 μM, DMNQ alone 77.8%
# Protocol: First, 1×10^6 cells were washed three times with 2% FBS-containing PBS solution, and the washed cells were suspended in 70% ethanol and fixed at 4° C. for 1 hour. The fixed cells were washed twice with the same solution, suspended in 250 μl of RNase A solution (50 μg/ml concentration), and incubated at 37° C. for 30 minutes to remove RNA from the cells. Then, DNA in the cells was stained at room temperature for 20 minutes by adding 250 μl of 1.12% sodium citrate buffer (pH 8.45) containing 50 μg/ml of propidium iodide. The cells were analyzed with a flow cytometer (FACS Calibur), and the distribution of the cell cycle was examined based on the content of stained DNA in each cell.
# The cell protective activity of the selected drug (AST-009) against DMNQ-induced oxidative stress was compared by DiOC6 staining. […] Thus, it could be seen that the cell protective activity of AST-009 was much stronger than that of L-serine.
# [2] = test system: hippocampal neuronal cell HT-22; assay: MTT cell viability / neuronal cell proliferation assay; conditions: for effect on cell proliferation in complete medium: L-serine versus AST-009, 25 to 10,000 μg
# Protocol: Murine hippocampal neuronal cell line HT-22 was cultured in Dulbecco's Modified Eagle's Medium (DMEM) supplemented with 10% fetal bovine serum (FBS) and 100 μg/ml gentamycin at 37° C. under a 5% CO2 atmosphere. In this Example, cells at passage 15 or below were used.
# Cell proliferation activity was examined by an MTT assay for measuring cell viability. First, hippocampal neuronal cell HT-22 (1×10^4 cells) was incubated with each of serially diluted sample solutions in 96-well plates for 16 hours, and then mixed with 50 μl of MTT (3-(4,5-dimethyl thiazolyl)2,5-diphenyl tetrazolium bromide) solution (1.1 mg/ml), followed by additional incubation for 4 hours. The formed formazan crystal was dissolved in 150 μl of […], and the optical density (OD) at 540 nm was measured using a plate reader.
# [3] = Blood-brain barrier (BBB) permeability in ICR mice; format: in vivo; conditions: 500 mg/kg
# Protocol: Each of L-serine and AST-099 was administered to 7-week-old ICR mice (n=3) at a dose of 500 mg/kg, and then the brain tissue and the blood were collected. The concentrations of L-serine distributed in the blood and the brain were quantified using LC/MS, and the BBB permeability was compared between the drugs by calculating the ratio of the concentration of L-serine in the brain to that in the blood.
# [4] = L-serine quantified by LC/MS, ICR mice, n=3
"Concentration, Brain tissue [3, 4] [ng/g]","Concentration, Plasma [3, 4] [ng/mL]","Kp ([3]; mouse, brain/plasma, ratio of L-serine concentration in brain to that in blood, ICR mice, n=3, read-out: Cbrain/Cplasma)","Cbrain/Cplasma ([3]; ratio of L-serine concentration in brain to that in blood, ICR mice, n=3)",SMILES,cell damage rate (membrane potential loss) ([1]; compound 0.5 mg/ml) [%],cell damage rate (membrane potential loss) ([1]; compound 1 mg/ml) [%],cell damage rate (membrane potential loss) ([1]; compound 5 mg/ml) [%],"HT-22 cell proliferation (cell viability, MTT) ([2]; L-serine/glycerin-deficient medium, treatment concentration of 10,000 μg/ml (=10 mg/ml))",effect on cell proliferation in complete medium [2],"Concentration, Brain tissue ([3]; mouse, in vivo) [ng/g]","Concentration, Plasma ([3]; mouse, in vivo) [ng/mL]","effect on cell proliferation at high concentration ([2]; L-serine/glycerin-deficient medium, concentration of 1 mg/ml or more)"
,,,,"NCCCC[C@H](NC(=O)[C@H](CO)NC(=O)[C@H](CO)NC(=O)[C@H](CO)NC(=O)O)C(=O)O [AST-009, H-Lys-Ser-Ser-Ser-OH]",64.3,45.5,20.0,up to 139%,no significant difference,7944 ± 427,1205 ± 120,
7314 ± 2071,2121 ± 1192,4.16 ± 2.03,4.16 ± 2.03,N[C@@H](CO)C(=O)O [L-serine],59.9,58.7,54.5,,no significant difference,,,slightly inhibited cell proliferation
